Measurements taken from ChEMBL document CHEMBL4390661, “Pyridazinone-substituted benzenesulfonamides display potent inhibition of membrane-bound human carbonic anhydrase IX and promising antiproliferative activity against cancer cell lines” (Eur J Med Chem, 2019).
The source made the active and inactive calls. The calls are words filed in the database; no cut-off is given here.

Key:
PANC-1 [1] = test: Cytotoxicity against human PANC1 cells assessed as reduction in cell viability incubated for 48 hrs under hypoxia condition by MTT assay relative to human ARPE19 cells; format: functional
Carbonic anhydrase 1 = Carbonic anhydrase 1 (Homo sapiens, UniProt P00915); test: Inhibition of human cytosolic CA 1 preincubated for 15 mins by phenol red dye-based stopped-flow CO2 hydration assay
Carbonic anhydrase 2 = Carbonic anhydrase 2 (Homo sapiens, UniProt P00918); test: Inhibition of human cytosolic CA 2 preincubated for 15 mins by phenol red dye-based stopped-flow CO2 hydration assay
Carbonic anhydrase 9 = Carbonic anhydrase 9 (Homo sapiens, UniProt Q16790); test: Inhibition of membrane bound human CA 9 preincubated for 15 mins by phenol red dye-based stopped-flow CO2 hydration assay
Carbonic anhydrase 12 [2] = molecular target: T1, Carbonic anhydrase 12 (Homo sapiens, UniProt O43570); test: Inhibition of membrane bound human CA 12 preincubated for 15 mins by phenol red dye-based stopped-flow CO2 hydration assay
ARPE-19 [3] = test: Cytotoxicity against human ARPE19 cells assessed as reduction in cell viability incubated for 48 hrs under normoxic condition by MTT assay relative to control; format: cell-based; conditions: arpe-19, 48 h
ARPE-19 [4] = test: Cytotoxicity against human ARPE19 cells assessed as reduction in cell viability incubated for 48 hrs under hypoxia condition by MTT assay relative to control; format: cell-based; conditions: arpe-19, 48 h
SK-MEL-2 [5] = test: Cytotoxicity against human SK-MEL-2 cells assessed as reduction in cell viability at 300 uM incubated for 48 hrs under normoxic condition by MTT assay relative to control; format: functional, cell-based
Carbonic anhydrase 12 [6] = molecular target: T1, Carbonic anhydrase 12
Description: Inhibition of human CA 12 catalytic domain

SK-MEL-2 [7] = test: Cytotoxicity against human SK-MEL-2 cells assessed as reduction in cell viability incubated for 48 hrs under normoxic condition by MTT assay relative to control; format: functional, cell-based
SK-MEL-2 [8] = test: Cytotoxicity against human SK-MEL-2 cells assessed as reduction in cell viability incubated for 48 hrs under hypoxia condition by MTT assay relative to control; format: functional, cell-based
PANC-1 [9] = test: Cytotoxicity against human PANC1 cells assessed as reduction in cell viability incubated for 48 hrs under normoxic condition by MTT assay relative to control; format: functional, cell-based
PANC-1 [10] = test: Cytotoxicity against human PANC1 cells assessed as reduction in cell viability incubated for 48 hrs under hypoxia condition by MTT assay relative to control; format: functional, cell-based
PANC-1 [11] = test: Cytotoxicity against human PANC1 cells assessed as reduction in cell viability incubated for 48 hrs under hypoxia condition by MTT assay; format: functional, cell-based

T1 sequence (O43570 whole entry): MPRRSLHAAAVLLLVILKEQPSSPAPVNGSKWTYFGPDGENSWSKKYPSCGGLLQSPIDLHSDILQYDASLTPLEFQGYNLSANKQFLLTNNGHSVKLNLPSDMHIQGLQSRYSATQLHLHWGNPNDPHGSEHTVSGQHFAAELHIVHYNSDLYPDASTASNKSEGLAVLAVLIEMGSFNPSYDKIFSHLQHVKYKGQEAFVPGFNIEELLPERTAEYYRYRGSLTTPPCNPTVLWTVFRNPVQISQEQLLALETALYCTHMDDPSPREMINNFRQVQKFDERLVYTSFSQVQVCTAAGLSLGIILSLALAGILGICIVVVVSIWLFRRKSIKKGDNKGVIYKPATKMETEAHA
Carbonic anhydrase 1, sequence (P00915 whole entry): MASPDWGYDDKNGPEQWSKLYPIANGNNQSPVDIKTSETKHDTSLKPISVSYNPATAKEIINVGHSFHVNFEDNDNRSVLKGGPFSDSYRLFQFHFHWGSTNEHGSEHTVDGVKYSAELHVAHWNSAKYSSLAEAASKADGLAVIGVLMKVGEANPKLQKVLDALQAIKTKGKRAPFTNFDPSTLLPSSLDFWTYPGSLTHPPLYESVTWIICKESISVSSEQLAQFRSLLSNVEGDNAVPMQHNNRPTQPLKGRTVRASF

Row | SMILES | Activity (PANC-1 [1]) | Ki (Carbonic anhydrase 1) | Ki (Carbonic anhydrase 2) | Ki (Carbonic anhydrase 9) | Ki (Carbonic anhydrase 12 [2]) | Activity (ARPE-19 [3]) | Activity (ARPE-19 [4]) | Activity (SK-MEL-2 [5]) | Ki (Carbonic anhydrase 12 [6]) | Activity (SK-MEL-2 [7]) | Activity (SK-MEL-2 [8]) | Activity (PANC-1 [9]) | Activity (PANC-1 [10]) | Activity (PANC-1 [11])
1 | NS(=O)(=O)c1ccc(-n2ncc(N3CCCCCC3)c(Cl)c2=O)cc1 | >30% | 97.4 nM | 0.06 nM | 0.49 nM | 8.4 nM | Dose-dependent effect | Dose-dependent effect | – | – | – | – | – | – | –
2 | NS(=O)(=O)c1ccc(-n2ncc(N3CCc4ccccc4C3)c(Cl)c2=O)cc1 | – | 738 nM | 60.5 nM | 89.6 nM | 85.5 nM | – | – | – | – | – | – | – | – | –
3 | COc1ccc(C2=NN(c3ccc(S(N)(=O)=O)cc3)C(=O)CC2)cc1 | >30% | 92.7 nM | 0.08 nM | 2.4 nM | 9.9 nM | Dose-dependent effect | Dose-dependent effect | – | – | – | – | – | – | –
4 | NS(=O)(=O)c1ccc(N2N=C(c3ccc(Cl)c(Cl)c3)CCC2=O)cc1 | – | 5960 nM | 74.1 nM | 6 nM | 67.1 nM | – | – | – | – | – | – | – | – | –
5 | NS(=O)(=O)c1ccc(-n2nc(-c3ccncc3)ccc2=O)cc1 | – | 227 nM | 4.8 nM | 50.8 nM | 8.7 nM | – | – | – | – | – | – | – | – | –
6 | NS(=O)(=O)c1ccc(-n2ncc3ccccc3c2=O)cc1 | – | 72.3 nM | 0.23 nM | 0.32 nM | 50.6 nM | – | – | – | – | – | – | – | – | –
7 | COc1ccc2cnn(-c3ccc(S(N)(=O)=O)cc3)c(=O)c2c1OC | – | 90.7 nM | 3.5 nM | 8.9 nM | 66.4 nM | – | – | – | – | – | – | – | – | –
8 | NS(=O)(=O)c1ccc(-n2ncc(N3CCCCCC3)cc2=O)cc1 | – | 88.2 nM | 0.08 nM | 0.56 nM | 6.3 nM | – | – | – | – | – | – | – | – | –
9 | Cc1cc(-c2cccnc2)nn(-c2ccc(S(N)(=O)=O)cc2)c1=O | – | 101 nM | 2.9 nM | 2.3 nM | 8.8 nM | – | – | – | – | – | – | – | – | –
10 | CCN1CCN(c2cnn(-c3ccc(S(N)(=O)=O)cc3)c(=O)c2)CC1 | – | 311 nM | 4.3 nM | 41.3 nM | 25.3 nM | – | – | Active | – | – | – | – | – | –
11 | CC1=NN(c2ccc(S(N)(=O)=O)cc2)C(=O)CC1 | >30% | 88.2 nM | 0.68 nM | 32.8 nM | 31 nM | – | – | – | – | – | – | – | – | –
12 | NS(=O)(=O)c1ccc(-n2nc(-c3ccccc3O)ccc2=O)cc1 | – | 84.1 nM | 0.62 nM | 0.46 nM | 9.3 nM | – | – | – | – | – | – | – | – | –
13 | NS(=O)(=O)c1ccc(S(=O)(=O)Nc2cccc3c(Cl)c[nH]c23)cc1 | – | – | – | – | – | – | – | – | 3 nM | – | – | – | – | –
14 | NS(=O)(=O)c1ccc(-n2ncc(N3CCOCC3)c(Cl)c2=O)cc1 | >30% | 89 nM | 0.07 nM | 0.58 nM | 36 nM | Non-Toxic | – | – | – | Dose-dependent effect | Dose-dependent effect | – | – | –
15 | NS(=O)(=O)c1ccc(-n2ncccc2=O)cc1 | >30% | 320 nM | 8.2 nM | 9 nM | 81.2 nM | Non-Toxic | Non-Toxic | – | – | inactive | inactive | inactive | inactive | inactive
16 | NS(=O)(=O)c1ccc(N2N=C(c3ccccc3)CCC2=O)cc1 | – | 187 nM | 0.26 nM | 4.8 nM | 22.5 nM | – | – | – | – | – | – | – | – | –
17 | NS(=O)(=O)c1ccc(-n2ncc(N3CCN(c4ccccn4)CC3)c(Cl)c2=O)cc1 | >30% | 676 nM | 46.6 nM | 89.5 nM | 105 nM | – | – | – | – | – | – | – | – | –
18 | NS(=O)(=O)c1ccc(-n2ncc(NCCCN3CCOCC3)c(Cl)c2=O)cc1 | – | 481 nM | 0.67 nM | 2.8 nM | 10.1 nM | – | – | – | – | – | – | – | – | –
19 | NS(=O)(=O)c1ccc(-n2ncc(Cl)c(Cl)c2=O)cc1 | >30% | 482 nM | 2.3 nM | 8.7 nM | 9.9 nM | – | – | – | – | – | – | – | – | –
20 | NS(=O)(=O)c1ccc(-n2nc(-c3ccc4c(c3)OCO4)ccc2=O)cc1 | – | 99 nM | 1.4 nM | 28.2 nM | 63.7 nM | – | – | – | – | – | – | – | – | –
21 | CCN1CCN(c2cnn(-c3ccc(S(N)(=O)=O)cc3)c(=O)c2Cl)CC1 | >30% | 485 nM | 0.29 nM | 0.7 nM | 7.2 nM | Non-Toxic | Non-Toxic | – | – | inactive | inactive | inactive | inactive | inactive
22 | NS(=O)(=O)c1ccc(-n2ncc(N3CCOCC3)cc2=O)cc1 | – | 292 nM | 0.55 nM | 2.1 nM | 9.8 nM | – | – | – | – | – | – | – | – | –
23 | Cc1nn(-c2ccc(S(N)(=O)=O)cc2)c(=O)c2ccccc12 | – | 89.7 nM | 0.03 nM | 0.24 nM | 9 nM | – | – | – | – | – | – | – | – | –
24 | NS(=O)(=O)c1ccc(-n2ncc(NCc3ccccc3)c(Cl)c2=O)cc1 | – | 95.1 nM | 0.09 nM | 0.67 nM | 9.4 nM | – | – | – | – | – | – | – | – | –
